We go through 21 compounds from patent US20180148418A1, “AMIDO-SUBSTITUTED CYCLOHEXANE DERIVATIVES” (Bayer Pharma Aktiengesellschaft, priority 2015, published 2018).

A word on the IC50: it is the concentration that gives 50% inhibition. Low values mean greater potency in that assay, high ones weaker potency in that assay.

The target of this test is T1, TNKS2 (Homo sapiens, UniProt Q9H2K2).
T1 construct: purchased BPS Bioscience, San Diego, USA 80572 (TNKS2 Histone Ribosylation Assay Kit)
T1 sequence (Q9H2K2 1-1166): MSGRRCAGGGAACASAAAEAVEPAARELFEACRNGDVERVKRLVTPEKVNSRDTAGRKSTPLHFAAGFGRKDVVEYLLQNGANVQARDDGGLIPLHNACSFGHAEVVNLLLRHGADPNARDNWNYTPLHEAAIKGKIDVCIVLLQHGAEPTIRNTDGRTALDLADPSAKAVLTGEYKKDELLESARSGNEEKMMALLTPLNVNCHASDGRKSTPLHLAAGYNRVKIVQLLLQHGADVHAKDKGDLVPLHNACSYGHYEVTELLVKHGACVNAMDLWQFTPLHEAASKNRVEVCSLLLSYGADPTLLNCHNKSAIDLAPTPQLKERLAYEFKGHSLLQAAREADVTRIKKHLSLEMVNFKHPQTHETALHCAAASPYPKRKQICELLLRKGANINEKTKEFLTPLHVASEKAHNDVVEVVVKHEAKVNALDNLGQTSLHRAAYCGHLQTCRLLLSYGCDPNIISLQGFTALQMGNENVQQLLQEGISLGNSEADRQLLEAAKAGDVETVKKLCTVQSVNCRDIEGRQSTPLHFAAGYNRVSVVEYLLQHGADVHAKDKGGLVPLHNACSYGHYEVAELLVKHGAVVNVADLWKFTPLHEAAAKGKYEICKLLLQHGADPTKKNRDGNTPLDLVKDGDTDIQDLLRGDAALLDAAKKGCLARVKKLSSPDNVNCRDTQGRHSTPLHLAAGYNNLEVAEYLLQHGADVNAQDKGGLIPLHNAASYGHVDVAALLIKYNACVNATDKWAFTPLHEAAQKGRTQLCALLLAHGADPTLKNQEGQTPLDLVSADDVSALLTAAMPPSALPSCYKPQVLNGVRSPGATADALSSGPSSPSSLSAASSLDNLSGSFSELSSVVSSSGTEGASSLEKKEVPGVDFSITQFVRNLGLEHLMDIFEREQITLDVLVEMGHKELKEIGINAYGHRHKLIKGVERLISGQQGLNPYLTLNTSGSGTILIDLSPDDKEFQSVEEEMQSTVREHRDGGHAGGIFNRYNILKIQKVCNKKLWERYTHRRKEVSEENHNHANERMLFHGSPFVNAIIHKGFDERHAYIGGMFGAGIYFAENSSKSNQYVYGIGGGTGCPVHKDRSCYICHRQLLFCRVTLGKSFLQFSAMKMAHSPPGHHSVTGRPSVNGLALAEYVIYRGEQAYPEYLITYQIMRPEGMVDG
In words: TNKS2 Assay B (auto-parsylation, [3H]-NAD+ SPA). Particulars: 6 nM TNKS2, auto-parsylation, over night at room temperature. Type of test: biochemical.

Counter-ions that a name gives are not always drawn.

With `CNC(=O)c1[nH]cnc1C(=O)N[C@H]1CC[C@@]2(CCN(c3ccc(F)cc3)C2=O)CC1` [Example 212, N^4-[(trans)-2-(4-fluorophenyl)-1-oxo-2-azaspiro[4.5]dec-8-yl]-N^5-methyl-1H-imidazole-4,5-dicarboxamide], the IC50 came out at 290 nM. This counts as sub-micromolar.

With `CCNC(=O)c1[nH]cnc1C(=O)N[C@H]1CC[C@@]2(CCN(c3ccc(F)cc3)C2=O)CC1` [Example 213, N^5-ethyl-N^4-[(trans)-2-(4-fluorophenyl)-1-oxo-2-azaspiro[4.5]dec-8-yl]-1H-imidazole-4,5-dicarboxamide], 220 nM corresponded to half-maximal inhibition (IC50).

As to `O=C(N[C@H]1CC[C@@]2(CCN(c3ccc(F)cc3Cl)C2=O)CC1)c1cnn2cc(CCO)cnc12` [Example 214, N-[(trans)-2-(2-chloro-4-fluorophenyl)-1-oxo-2-azaspiro[4.5]dec-8-yl]-6-(2-hydroxyethyl)pyrazolo[1,5-a]pyrimidine-3-carboxamide], the IC50 came out at 5.3 nM.

Consider `CNc1ccn2ncc(C(=O)N[C@H]3CC[C@@]4(CCN(c5ccc(F)cc5Cl)C4=O)CC3)c2n1` [Example 215, N-[(trans)-2-(2-chloro-4-fluorophenyl)-1-oxo-2-azaspiro[4.5]dec-8-yl]-5-(methylamino)pyrazolo[1,5-a]pyrimidine-3-carboxamide], for which the IC50 came out at 2.2 nM.

On to `Cc1nn2cccnc2c1C(=O)N[C@H]1CC[C@@]2(CCN(c3ccc(F)cc3Cl)C2=O)CC1` [Example 216, N-[(trans)-2-(2-chloro-4-fluorophenyl)-1-oxo-2-azaspiro[4.5]dec-8-yl]-2-methylpyrazolo[1,5-a]pyrimidine-3-carboxamide], for which the IC50 is 340 nM.

In turn, `CN(C)c1ccn2ncc(C(=O)N[C@H]3CC[C@@]4(CCN(c5ccc(F)cc5Cl)C4=O)CC3)c2n1` [Example 217, N-[(trans)-2-(2-chloro-4-fluorophenyl)-1-oxo-2-azaspiro[4.5]dec-8-yl]-5-(dimethylamino)pyrazolo[1,5-a]pyrimidine-3-carboxamide] gave an IC50 of 1.7 nM.

Take `COc1ccn2ncc(C(=O)N[C@H]3CC[C@@]4(CCN(c5ccc(F)cc5Cl)C4=O)CC3)c2n1` [Example 218, N-[(trans)-2-(2-chloro-4-fluorophenyl)-1-oxo-2-azaspiro[4.5]dec-8-yl]-5-methoxypyrazolo[1,5-a]pyrimidine-3-carboxamide]: inhibition was half-maximal at 4.8 nM (IC50). This IC50 lies about 2.8-fold higher than the previous one.

`Cc1ccn2ncc(C(=O)N[C@H]3CC[C@@]4(CCN(c5ccc(F)cc5Cl)C4=O)CC3)c2n1` [Example 221, N-[(trans)-2-(2-chloro-4-fluorophenyl)-1-oxo-2-azaspiro[4.5]dec-8-yl]-5-methylpyrazolo[1,5-a]pyrimidine-3-carboxamide]: the IC50 is 3.8 nM.

As for `Cc1ccnc2c(C(=O)N[C@H]3CC[C@@]4(CCN(c5ccc(F)cc5Cl)C4=O)CC3)cnn12` [Example 222, N-[(trans)-2-(2-chloro-4-fluorophenyl)-1-oxo-2-azaspiro[4.5]dec-8-yl]-7-methylpyrazolo[1,5-a]pyrimidine-3-carboxamide], the IC50 came out at 6.5 nM.

Compound `Cc1cc(C(F)F)n2ncc(C(=O)N[C@H]3CC[C@@]4(CCN(c5ccc(F)cc5Cl)C4=O)CC3)c2n1` [Example 224, N-[(trans)-2-(2-chloro-4-fluorophenyl)-1-oxo-2-azaspiro[4.5]dec-8-yl]-7-(difluoromethyl)-5-methylpyrazolo[1,5-a]pyrimidine-3-carboxamide] returned an IC50 of 11 nM.

The compound `CC(C)(C)OC(=O)N1CCN(c2ccn3ncc(C(=O)N[C@H]4CC[C@@]5(CCN(c6ccc(F)cc6Cl)C5=O)CC4)c3n2)CC1` [Example 225, tert-butyl 4-(3-{[(trans)-2-(2-chloro-4-fluorophenyl)-1-oxo-2-azaspiro[4.5]dec-8-yl]carbamoyl}pyrazolo[1,5-a]pyrimidin-5-yl)piperazine-1-carboxylate] yielded an IC50 of 2.5 nM.

For `O=C(N[C@H]1CC[C@@]2(CCN(c3ccc(F)cc3Cl)C2=O)CC1)c1cnn2ccc(N3CCNCC3)nc12` [Example 226, N-[(trans)-2-(2-chloro-4-fluorophenyl)-1-oxo-2-azaspiro[4.5]dec-8-yl]-5-(piperazin-1-yl)pyrazolo[1,5-a]pyrimidine-3-carboxamide hydrochloric acid salt], inhibition was half-maximal at 3.3 nM (IC50).

`O=C(N[C@H]1CC[C@@]2(CCN(c3ccc(F)cc3Cl)C2=O)CC1)c1cnn2ccc(N3CCCC3)nc12` [Example 232, N-[(trans)-2-(2-chloro-4-fluorophenyl)-1-oxo-2-azaspiro[4.5]dec-8-yl]-5-(pyrrolidin-1-yl)pyrazolo[1,5-a]pyrimidine-3-carboxamide] displayed an IC50 of 3.3 nM.

Compound `O=C(N[C@H]1CC[C@@]2(CCN(c3ccc(F)cc3Cl)C2=O)CC1)c1cnn2c(C(F)(F)F)ccnc12` [Example 233, N-[(trans)-2-(2-chloro-4-fluorophenyl)-1-oxo-2-azaspiro[4.5]dec-8-yl]-7-(trifluoromethyl)pyrazolo[1,5-a]pyrimidine-3-carboxamide] displayed an IC50 of 25 nM.

`O=C(N[C@H]1CC[C@@]2(CCN(c3ccccc3Cl)C2=O)CC1)c1cnn2cccnc12` [Example 256, N-[(trans)-2-(2-chlorophenyl)-1-oxo-2-azaspiro[4.5]dec-8-yl]pyrazolo[1,5-a]pyrimidine-3-carboxamide] gave an IC50 of 12 nM.

`Cc1cc(C)n2ncc(C(=O)N[C@H]3CC[C@@]4(CCN(c5ccccc5Cl)C4=O)CC3)c2n1` [Example 257, N-[(trans)-2-(2-chlorophenyl)-1-oxo-2-azaspiro[4.5]dec-8-yl]-5,7-dimethylpyrazolo[1,5-a]pyrimidine-3-carboxamide] registered a concentration for half-maximal inhibition (IC50) of 5.7 nM. This IC50 lies about 2.1-fold lower than the previous one.

`CCNC(=O)c1nc[nH]c1C(=O)N[C@H]1CC[C@@]2(CCN(c3ccccc3Cl)C2=O)CC1` [Example 258, N^5-[(trans)-2-(2-chlorophenyl)-1-oxo-2-azaspiro[4.5]dec-8-yl]-N^4-ethyl-1H-imidazole-4,5-dicarboxamide] returned an IC50 of 6.3 nM.

Regarding `COCCNC(=O)c1nc[nH]c1C(=O)N[C@H]1CC[C@@]2(CCN(c3ccccc3Cl)C2=O)CC1` [Example 259, N^5-[(trans)-2-(2-chlorophenyl)-1-oxo-2-azaspiro[4.5]dec-8-yl]-N^4-(2-methoxyethyl)-1H-imidazole-4,5-dicarboxamide], it took 6.3 nM to reach half-maximal inhibition (IC50).

On to `CC1CCN(CCNC(=O)c2nc[nH]c2C(=O)N[C@H]2CC[C@@]3(CCN(c4ccccc4Cl)C3=O)CC2)CC1` [Example 260, N^5-[(trans)-2-(2-chlorophenyl)-1-oxo-2-azaspiro[4.5]dec-8-yl]-N^4-[2-(4-methylpiperidin-1-yl)ethyl]-1H-imidazole-4,5-dicarboxamide], for which the IC50 stood at 1.7 nM. Compared with the last compound, the IC50 is about 3.7-fold lower.

Compound `CNC(=O)c1nc[nH]c1C(=O)N[C@H]1CC[C@@]2(CCN(c3ccccc3Cl)C2=O)CC1` [Example 264, N^5-[(trans)-2-(2-chlorophenyl)-1-oxo-2-azaspiro[4.5]dec-8-yl]-N^4-methyl-1H-imidazole-4,5-dicarboxamide] displayed an IC50 of 4 nM.

As for `Cc1cc(N2CC[C@]3(CC[C@@H](NC(=O)c4cnc5cccnn45)CC3)C2=O)c(Cl)cc1F` [Example 265, N-[(trans)-2-(2-chloro-4-fluoro-5-methylphenyl)-1-oxo-2-azaspiro[4.5]dec-8-yl]imidazo[1,2-b]pyridazine-3-carboxamide], half-maximal inhibition (IC50) was put at 4.8 nM.
